Measurements published in ChEMBL document CHEMBL1201862, “PubChem BioAssay data set” (2004).
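Growth conditions: 96-well plates. Treatment: test compound, 48 hours, 5 concentrations. Analysis: linear interpolation between bracketing concentrations; unreached endpoints set to highest concentration. Abbreviation: GI50, concentration required for 50% inhibition of growth.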 Activity calls are given as the source filed them. Rule as the data show it: active = GI50 up to about 1.1 µM and inactive = higher.

Columns and labels:
Experiment in all cases: growth of human tumour cells (NCI), 48 h
BT-549 = system: BT-549
786-0 = system: 786-0
DU-145 = system: DU-145
CAKI-1 = system: CAKI-1
SK-MEL-28 = system: SK-MEL-28
RXF 393 = system: RXF 393
TK-10 = system: TK-10
MCF7 = system: MCF7
K562 = system: K562
MOLT-4 = system: MOLT-4
NCI-H522 = system: NCI-H522
U-251 = system: U-251
NCI-H23 = system: NCI-H23
OVCAR-5 = system: OVCAR-5
Malme-3M = system: Malme-3M
OVCAR-8 = system: OVCAR-8
UO-31 = system: UO-31
SK-MEL-5 = system: SK-MEL-5
Hs-578T = system: Hs-578T
SN12C = system: SN12C
COLO 205 = system: COLO 205
A498 = system: A498
T47D = system: T47D
MDA-MB-231 = system: MDA-MB-231
SF-295 = system: SF-295
ACHN = system: ACHN
SW-620 = system: SW-620
RPMI-8226 = system: RPMI-8226
SNB-75 = system: SNB-75
UACC-257 = system: UACC-257
HOP-92 = system: HOP-92
SK-OV-3 = system: SK-OV-3
KM12 = system: KM12
HCT-116 = system: HCT-116
A549 = system: A549
OVCAR-3 = system: OVCAR-3
HCC 2998 = system: HCC 2998
MDA-N = system: MDA-N
MDA-MB-435 = system: MDA-MB-435
NCI-H226 = system: NCI-H226
LOX IMVI = system: LOX IMVI
OVCAR-4 = system: OVCAR-4
M14 = system: M14
UACC-62 = system: UACC-62
SK-MEL-2 = system: SK-MEL-2
SF-539 = system: SF-539
IGROV-1 = system: IGROV-1
EKVX = system: EKVX
NCI-H460 = system: NCI-H460
SNB-19 = system: SNB-19
NCI/ADR-RES = system: NCI/ADR-RES
PC-3 = system: PC-3
SR = system: SR
HCT-15 = system: HCT-15
SF-268 = system: SF-268
CCRF-CEM = system: CCRF-CEM
HOP-62 = system: HOP-62
HT-29 = system: HT-29
HL-60 = system: HL-60

In the case of CCOC(=O)C(C(N)=O)C1=Nc2cc([N+](=O)[O-])ccc2N/C1=C\C(=O)c1ccc(C)cc1 (centres undefined), the GI50 (BT-549) is reported as 22.6 µM (inactive), the GI50 (786-0) is reported as 13.1 µM (inactive) and the GI50 (DU-145) is reported as 32.6 µM (inactive). For the same compound, the GI50 (CAKI-1) was 46.6 µM (inactive), the GI50 (SK-MEL-28) was 29.3 µM (inactive) and the GI50 (RXF 393) was 17.6 µM (inactive). The GI50 (TK-10) was 14.8 µM (inactive), the GI50 (MCF7) was 22.4 µM (inactive) and the GI50 (K562) was 2.46 µM (inactive). The GI50 (MOLT-4) was 0.522 µM (active), the GI50 (NCI-H522) was 17.7 µM (inactive) and the GI50 (U-251) was 15.5 µM (inactive). For the same compound, the GI50 (NCI-H23) was 16.9 µM (inactive), the GI50 (OVCAR-5) was 70.8 µM (inactive) and the GI50 (Malme-3M) was 35.3 µM (inactive). For the same compound, the GI50 (OVCAR-8) was 19 µM (inactive), the GI50 (UO-31) was 17.6 µM (inactive) and the GI50 (SK-MEL-5) was 33.9 µM (inactive). The GI50 (Hs-578T) was 21.6 µM (inactive), the GI50 (SN12C) was 26.2 µM (inactive) and the GI50 (COLO 205) was 27.2 µM (inactive). The GI50 (A498) was 27.8 µM (inactive), the GI50 (T47D) was 60.1 µM (inactive) and the GI50 (MDA-MB-231) was 18.4 µM (inactive). The GI50 (SF-295) was 19.4 µM (inactive), the GI50 (ACHN) was 21.3 µM (inactive) and the GI50 (SW-620) was 28.7 µM (inactive). For the same compound, the GI50 (RPMI-8226) was 18.1 µM (inactive), the GI50 (SNB-75) was 16.1 µM (inactive) and the GI50 (UACC-257) was 39.5 µM (inactive). For the same compound, the GI50 (HOP-92) was 18.1 µM (inactive), the GI50 (SK-OV-3) was 18.3 µM (inactive) and the GI50 (KM12) was 31.2 µM (inactive). The GI50 (HCT-116) was 20.7 µM (inactive), the GI50 (A549) was 26.9 µM (inactive) and the GI50 (OVCAR-3) was 15.8 µM (inactive). For the same compound, the GI50 (HCC 2998) was 23.3 µM (inactive), the GI50 (MDA-N) was 43.3 µM (inactive) and the GI50 (MDA-MB-435) was 39.4 µM (inactive). The GI50 (NCI-H226) was 27.4 µM (inactive), the GI50 (LOX IMVI) was 23.3 µM (inactive) and the GI50 (OVCAR-4) was 43.6 µM (inactive). The GI50 (M14) was 38.3 µM (inactive), the GI50 (UACC-62) was 30.3 µM (inactive) and the GI50 (SK-MEL-2) was 20.9 µM (inactive). For the same compound, the GI50 (SF-539) was 17.1 µM (inactive), the GI50 (IGROV-1) was 17.4 µM (inactive) and the GI50 (EKVX) was 26.7 µM (inactive). The GI50 (NCI-H460) was 22.2 µM (inactive), the GI50 (SNB-19) was 20.7 µM (inactive) and the GI50 (NCI/ADR-RES) was 22.1 µM (inactive). The GI50 (PC-3) was 20 µM (inactive), the GI50 (SR) was 7.55 µM (inactive) and the GI50 (HCT-15) was 28.8 µM. For the same compound, the GI50 (SF-268) was 15.1 µM (inactive), the GI50 (CCRF-CEM) was 23.6 µM (inactive) and the GI50 (HOP-62) was 16.8 µM (inactive). The GI50 (HT-29) was 33.1 µM (inactive).

CC1OC(OC2C(O[C@H]3CC[C@@]4(C)C(=CC[C@H]5[C@@H]6C[C@@H]7O[C@]8(CC[C@H](C)CN8)[C@@H](C)[C@@H]7[C@@]6(C)CC[C@@H]54)C3)OC(CO)C(O)C2OC2OC(CO)C(O)C(O)C2O)C(O)C(O)C1O (some centres undefined) was tested, and the GI50 (BT-549) was 17 µM (inactive), the GI50 (786-0) was 24 µM (inactive) and the GI50 (DU-145) was 19.4 µM (inactive). For the same compound, the GI50 (CAKI-1) was 19.2 µM (inactive), the GI50 (SK-MEL-28) was 19.1 µM (inactive) and the GI50 (RXF 393) was 15.8 µM (inactive). For the same compound, the GI50 (TK-10) was 17.3 µM (inactive), the GI50 (MCF7) was 16.9 µM (inactive) and the GI50 (K562) was > 10 µM (inactive). For the same compound, the GI50 (MOLT-4) was 18.9 µM (inactive), the GI50 (NCI-H522) was 12.8 µM (inactive) and the GI50 (U-251) was 37.2 µM (inactive). For the same compound, the GI50 (NCI-H23) was 18.5 µM (inactive), the GI50 (OVCAR-5) was 14.8 µM (inactive) and the GI50 (Malme-3M) was 18 µM (inactive). For the same compound, the GI50 (OVCAR-8) was 15.5 µM (inactive), the GI50 (UO-31) was 19.1 µM (inactive) and the GI50 (SK-MEL-5) was 19.2 µM (inactive). The GI50 (HL-60) was 15.5 µM (inactive), the GI50 (Hs-578T) was 14.7 µM (inactive) and the GI50 (SN12C) was 20.8 µM (inactive). For the same compound, the GI50 (COLO 205) was 17.9 µM (inactive), the GI50 (A498) was 26.9 µM (inactive) and the GI50 (T47D) was 19.5 µM (inactive). For the same compound, the GI50 (MDA-MB-231) was 21.4 µM (inactive), the GI50 (SF-295) was 18.4 µM (inactive) and the GI50 (ACHN) was 17.6 µM (inactive). For the same compound, the GI50 (SW-620) was 19.2 µM (inactive), the GI50 (SNB-75) was 14.5 µM (inactive) and the GI50 (UACC-257) was 18.2 µM (inactive). For the same compound, the GI50 (HOP-92) was 17.5 µM (inactive), the GI50 (SK-OV-3) was 16.9 µM (inactive) and the GI50 (KM12) was 20 µM (inactive). For the same compound, the GI50 (HCT-116) was 20.1 µM (inactive), the GI50 (A549) was 18.1 µM (inactive) and the GI50 (HCC 2998) was 18.3 µM (inactive). The GI50 (MDA-N) was 20.7 µM (inactive), the GI50 (MDA-MB-435) was 23.5 µM (inactive) and the GI50 (NCI-H226) was 17.4 µM (inactive). For the same compound, the GI50 (LOX IMVI) was 28.3 µM (inactive), the GI50 (OVCAR-4) was 19.8 µM (inactive) and the GI50 (M14) was 18.4 µM (inactive). The GI50 (UACC-62) was 17.6 µM (inactive), the GI50 (SK-MEL-2) was 18.4 µM (inactive) and the GI50 (SF-539) was 16.7 µM (inactive). For the same compound, the GI50 (IGROV-1) was 19.5 µM (inactive), the GI50 (EKVX) was 16.5 µM (inactive) and the GI50 (NCI-H460) was 17.8 µM (inactive). For the same compound, the GI50 (SNB-19) was 20.7 µM (inactive), the GI50 (NCI/ADR-RES) was 16.4 µM (inactive) and the GI50 (PC-3) was 18.1 µM (inactive). The GI50 (SR) was 29 µM (inactive), the GI50 (HCT-15) was 16.7 µM and the GI50 (SF-268) was 16.6 µM (inactive). The GI50 (CCRF-CEM) was 21.6 µM (inactive) and the GI50 (HT-29) was 17.8 µM (inactive).
